This is an account of results in patent US9062072B2, “Inhibitors of HIF and angiogenesis” (Emory University, priority 2010, dated 2015).

The target of this assay is HIF-1-mediated transcription. Put plainly: HIF-1-mediated transcription under hypoxia, LN229-HRE-Lux luciferase reporter assay. The assay is classed as cell-based, human. Particulars: for IC50: LN229-HRE-Lux cells, hypoxia (1% O2). On the procedure:
The synthesized analogues were evaluated for their potential to inhibit HIF-1-mediated transcription under hypoxia (1% O2) using a human glioma cell line LN229-HRE-Lux, which stably expresses a hypoxia-responsive luciferase reporter gene (Table 1-9). […] The compounds were tested in single (n=1) or multiple (n>1) independent experiments each carried out in quadruplicate.
LN229-HRE-luciferase human glioblastoma cells were used to perform the assay. […] 48-well plates were seeded with 3.10^4 cells per well and incubated under normoxic conditions for 24 h. Cells were then pre-treated with different concentrations of KCN-1 or its analogues for 1 h and then transferred to hypoxic conditions. After 24 h, media was aspirated, cells were lysed and reporter activity was measured in the lysate using Luciferase Assay System (Promega, Madison, Wis.) with 20/20^n Luminometer (Promega).

[1] abbreviates: Homo sapiens, 24 h, Table 3, 24 h, read-out: IC50.
[2] abbreviates: Homo sapiens, 24 h, 24 h, read-out: IC50.
Setting [3] is: Homo sapiens, 24 h, Table 4, 24 h, read-out: IC50.
[4] abbreviates: Homo sapiens, 24 h, Table 5, 24 h, read-out: IC50.
The mark [5] stands for this setting: Homo sapiens, 24 h, Table 6, 24 h, read-out: IC50.
[6] abbreviates: Homo sapiens, 24 h, Table 7, 24 h, results from single runs, read-out: IC50.

Read-outs that look alike come from different tables or passages of the source. A value given as a limit tells only on which side of the number the result lay.

Regarding `COc1ccc(S(=O)(=O)N(Cc2ccc3c(c2)C=CC(C)(C)O3)C2CC2)cc1OC` [Compound 5h, Cyclopropyl-N-(2,2-dimethyl-2H-chromen-6-ylmethyl)-3,4-dimethoxy-benzenesulfonamide], the IC50 (Table 2, 24 h, read-out: IC50) stood at 1500 nM.

For `COc1ccc(S(=O)(=O)N(Cc2ccc3c(c2)C=CC(C)(C)O3)C2CCCCC2)cc1OC` [Compound 5i, N-Cyclohexyl-N-(2,2-dimethyl-2H-chromen-6-ylmethyl)-3,4-dimethoxy-benzenesulfonamide], the IC50 (Homo sapiens, 24 h, Table 2, 24 h, read-out: IC50) worked out at 4000 nM.

With `COc1ccc(S(=O)(=O)N(Cc2ccc3c(c2)C=CC(C)(C)O3)c2ccccc2)cc1` [Compound 5j, N-((2,2-Dimethyl-2H-chromen-6-yl)methyl)-4-methoxy-N-phenylbenzenesulfonamide], under setting [1], the IC50 is 600 nM.

For the molecule `Cc1cc(C)cc(S(=O)(=O)N(Cc2ccc3c(c2)C=CC(C)(C)O3)c2ccccc2)c1` [Compound 5k, N-((2,2-Dimethyl-2H-chromen-6-yl)methyl)-3,5-dimethyl-N-phenylbenzenesulfonamide], the half-inhibitory concentration (IC50) is, setting by setting: under setting [1], 500 nM; under setting [2], 600 nM.

For the molecule `CC1(C)C=Cc2cc(CN(c3ccccc3)S(=O)(=O)c3cc(Cl)ccc3Cl)ccc2O1` [Compound 5l, 2,5-Dichloro-N-((2,2-dimethyl-2H-chromen-6-yl)methyl)-N-phenylbenzenesulfonamide], under setting [1], the IC50 stood at 2100 nM.

Turning to `CC1(C)C=Cc2cc(CN(c3ccccc3)S(=O)(=O)c3ccc(Br)cc3OC(F)(F)F)ccc2O1` [Compound 5m, 4,4-Bromo-N-((2,2-dimethyl-2H-chromen-6-yl)methyl)-N-phenyl-2-(trifluoromethoxy)benzenesulfonamide], the IC50 under setting [1] is > 25000 nM.

For the molecule `CCC1(C)C=Cc2cc(CN(c3ccccc3)S(=O)(=O)c3ccc(OC)c(OC)c3)ccc2O1` (centres unmarked) [Compound 10, N-((2-Ethyl-2-methyl-2H-chromen-6-yl)methyl)-3,4-dimethoxy-N-phenylbenzenesulfonamide], the IC50 under setting [3] was found to be 3100 nM and the IC50 under setting [2] was found to be 2200 nM.

`COc1ccc(S(=O)(=O)N(Cc2cnc3ccccc3c2)c2ccccc2)cc1OC` [Compound 13, 3,4-Dimethoxy-N-phenyl-N-(quinolin-3-ylmethyl)benzenesulfonamide]: the IC50 is 1300 nM under setting [3] and 3500 nM under setting [2].

For the molecule `COc1ccc(S(=O)(=O)N(Cc2ccc3c(c2)CC(C)(C)O3)c2ccccc2)cc1OC` [Compound 16a, N-((2,2-Dimethyl-2,3-dihydrobenzofuran-5-yl)methyl)-3,4-dimethoxy-N-phenylbenzenesulfonamide], the IC50 under setting [4] was 500 nM.

`COc1ccc(S(=O)(=O)N(Cc2ccc3c(c2)CC(C)(C)O3)C2CCCCCC2)cc1OC` [Compound 16b, N-Cycloheptyl-N-((2,2-dimethyl-2,3-dihydrobenzofuran-5-yl)methyl)-3,4dimethoxybenzenesulfonamide]: the IC50 reads like this: under setting [4], 9100 nM; under setting [2], 9100 nM.

Consider `COc1ccc(S(=O)(=O)N(Cc2ccc3c(c2)CC(C)(C)O3)C(C)C)cc1OC` [Compound 16c, N-((2,2-dimethyl-2,3-dihydrobenzofuran-5-yl)methyl)-N-isopropyl-3,4-dimethoxybenzenesulfonamide], for which the concentration for half-maximal inhibition (IC50) under setting [4] stood at 1500 nM.

For `CCCCN(Cc1ccc2c(c1)CC(C)(C)O2)S(=O)(=O)c1ccc(OC)c(OC)c1` [Compound 16d, N-Butyl-N-((2,2-dimethyl-2,3-dihydrobenzofuran-5-yl)methyl)-3,4-dimethoxybenzenesulfonamide], the IC50 under setting [4] was 600 nM.

Consider `COc1ccc(S(=O)(=O)N(Cc2ccc3c(c2)CC(C)(C)O3)C2CCCCC2)cc1OC` [Compound 16e, N-Cyclohexyl-N-((2,2-dimethyl-2,3-dihydrobenzofuran-5-yl)methyl)-3,4-dimethoxybenzenesulfonamide], for which the concentration for half-maximal inhibition (IC50) reads like this: (Homo sapiens, 24 h, Table 5) 8200 nM; (Homo sapiens, 24 h) 8200 nM.

As to `COc1ccc(S(=O)(=O)N(Cc2ccc3c(c2)CC(C)(C)O3)C2CCCC2)cc1OC` [Compound 16f, N-Cyclopentyl-N-((2,2-dimethyl-2,3-dihydrobenzofuran-5-yl)methyl)-3,4-dimethoxybenzenesulfonamide], the IC50 came to 400 nM under setting [4] and 400 nM under setting [2].

Regarding `COc1ccc(S(=O)(=O)N(Cc2cnc3c(c2)C=CC(C)(C)O3)c2ccccc2)cc1OC` [Compound 20a, N-((2,2-Dimethyl-2H-pyrano[2,3-b]pyridin-6-yl)methyl)-3,4-dimethoxy-N-phenylbenzenesulfonamide], the IC50 stood at 2500 nM under setting [5] and 2500 nM under setting [2].

With `COc1ccc(S(=O)(=O)N(Cc2cnc3c(c2)C=CC(C)(C)O3)C2CCCCC2)cc1OC` [Compound 20b, N-Cyclohexyl-N-((2,2-dimethyl-2H-pyrano[2,3-b]pyridin-6-yl)methyl)-3,4-dimethoxybenzenesulfonamide], the IC50 under setting [5] was > 25000 nM.

For the molecule `COc1ccc(S(=O)(=O)N(Cc2ccc3c(n2)C=CC(C)(C)O3)c2ccccc2)cc1OC` [Compound 26a, N-((2,2-dimethyl-2H-pyrano[3,2-b]pyridin-6-yl)methyl)-3,4-dimethoxy-N-phenylbenzenesulfonamide], the IC50 under setting [6] amounted to 1300 nM and the IC50 (Homo sapiens, unit inferred, read-out: IC50) came out at 1300 nM.

Turning to `CCCCN(Cc1ccc2c(n1)C=CC(C)(C)O2)S(=O)(=O)c1ccc(OC)c(OC)c1` [Compound 26b, N-Butyl-N-((2,2-dimethyl-2H-pyrano[3,2-b]pyridin-6-yl)methyl)-3,4-dimethoxybenzenesulfonamide], the IC50 under setting [6] is 900 nM.

Regarding `COc1ccc(N(Cc2ccc3c(n2)C=CC(C)(C)O3)S(=O)(=O)c2ccc(OC)c(OC)c2)cc1OC` [Compound 26c, N-(3,4-Dimethoxyphenyl)-N-((2,2-dimethyl-2H-pyrano[3,2-b]pyridin-6-yl)methyl)-3,4-dimethoxybenzenesulfonamide], the IC50 under setting [6] is > 25000 nM.

As for `COc1ccc(S(=O)(=O)N(Cc2ccc3c(n2)C=CC(C)(C)O3)C2CCCC2)cc1OC` [Compound 26d, N-Cyclopentyl-N-((2,2-dimethyl-2H-pyrano[3,2-b]pyridin-6-yl)methyl)-3,4-dimethoxybenzenesulfonamide], under setting [6], the 50% inhibitory concentration (IC50) was found to be 600 nM.

Take `COc1ccc(S(=O)(=O)N(Cc2ccc3c(n2)C=CC(C)(C)O3)C2CCCCC2)cc1OC` [Compound 26e, N-Cyclohexyl-N-((2,2-dimethyl-2H-pyrano[3,2-b]pyridin-6-yl)methyl)-3,4-dimethoxybenzenesulfonamide]: the IC50 under setting [6] stood at 800 nM.

Turning to `COc1ccc(S(=O)(=O)N(Cc2ccc3c(n2)C=CC(C)(C)O3)C2CCCCCC2)cc1OC` [Compound 26g, N-Cycloheptyl-N-((2,2-dimethyl-2H-pyrano[3,2-b]pyridin-6-yl)methyl)-3,4-dimethoxybenzenesulfonamide], under setting [6], the IC50 is 6600 nM.

As to `COc1ccc(S(=O)(=O)N(Cc2ccc3c(n2)C=CC(C)(C)O3)C2CCCCCCC2)cc1OC` [Compound 26h, N-Cyclooctyl-N-((2,2-dimethyl-2H-pyrano[3,2-b]pyridin-6-yl)methyl)-3,4-dimethoxybenzenesulfonamide], the IC50 under setting [6] was determined as 700 nM.

Regarding `COc1ccc(S(=O)(=O)N(Cc2ccc3c(n2)C=CC(C)(C)O3)C2CCC2)cc1OC` [Compound 26i, N-Cyclobutyl-N-((2,2-dimethyl-2H-pyrano[3,2-b]pyridin-6-yl)methyl)-3,4-dimethoxybenzenesulfonamide], the IC50 under setting [6] was 250 nM; the IC50 under setting [2] amounted to 250 nM; the IC50 (24 h, read-out: IC50) worked out at 400 nM. In addition, the “fold higher potency than KCN-1” value (IC50 compared with KCN-1, LN229-HRE-Lux reporter assay) is ~3 fold.
